Results as given in patent US20230165980A1, “METHODS FOR RADIOLABELING PSMA BINDING LIGANDS AND THEIR KITS” (Novartis AG, priority 2020, published 2023).

Test: Radiochemical purity and radiochemical stability of ^68GaPSMA-11 by HPLC
Format: physicochemical
Method: Radiochemical Purity and Identification of ^68GaPSMA-11 by HPLC
Chromatographic Conditions
Radical Scavenger to be used for the improvement of the radiochemical stability of ^68Ga-PSMA-11, tests were performed according to a varied approach in order to consider all the parameters that may affect the radiochemical purity of the product (activity, pH, volume, amount of Gentisic Acid).
Stability tests were performed on the freeze dried product containing the final formulation. […] Kits manufactured with the final formulation, indeed, were stored at different stability conditions (2-8° C.; 25° C. and 40° C.) and were tested at different time points for API-assay, Radiochemical Purity and Radiochemical Stability of the radiolabelled product. Radiochemical Purity and Stability were assessed only eluting IRE Generator which represented the most stressful condition in terms of Radioactive Concentration (Volumic Activity).

[1] = t4 h, Gentisic Acid 0 μg, IRE 17.19 mCi, 1 mL, pH 5.24
[2] = t4 h, Gentisic Acid 200 μg, IRE 17.85 mCi, 1 mL, pH 5.22
[3] = t4 h, Gentisic Acid 200 μg, IRE 18.07 mCi, 1 mL, pH 5.25
[4] = t4 h, Gentisic Acid 200 μg, ITG 35.92 mCi, 4 mL, pH 4.83
[5] = t4 h, Gentisic Acid 400 μg, IRE 17.44 mCi, 1 mL, pH 5.13
[6] = t4 h, Gentisic Acid 400 μg, IRE 17.79 mCi, 1 mL, pH 5.11
[7] = t4 h, Gentisic Acid 400 μg, ITG 16.9 mCi, 4 mL, pH 4.85
[8] = t4 h, Gentisic Acid 400 μg, ITG 31.97 mCi, 4 mL, pH 4.81
[9] = t4 h, Gentisic Acid 1000 μg, E&Z 15.65 mCi, 5 mL, pH 3.75
[10] = t4 h, Gentisic Acid 1000 μg, IRE 17.1 mCi, 1 mL, pH 5.08
[11] = t4 h, Gentisic Acid 1000 μg, ITG 30.9 mCi, 4 mL, pH 4.87
[12] = t4 h, final formulation kit at Release, E&Z 15.65 mCi, 5 mL, pH 3.75
[13] = t4 h, final formulation kit at Release, E&Z 16.80 mCi, 5 mL, pH 3.75
[14] = t4 h, final formulation kit at Release, IRE 32.27 mCi, 1 mL, pH 4.95
[15] = t4 h, final formulation kit at Release, IRE 32.95 mCi, 1 mL, pH 5.07
[16] = t4 h, final formulation kit at Release, ITG 29.74 mCi, 4 mL, pH 4.67
[17] = t4 h, final formulation kit at Release, ITG 30.90 mCi, 4 mL, pH 4.67
[18] = t4 h, kit stored 3 months at 2-8° C., IRE 25.76 mCi, 1 mL, pH 5.29
[19] = t4 h, kit stored 3 months at 25° C., IRE 24.56 mCi, 1 mL, pH 5.16
[20] = t4 h, kit stored 3 months at 40° C., IRE 24.86 mCi, 1 mL, pH 5.23
[21] = t4 h, kit stored 6 months at 2-8° C., IRE 19.90 mCi, 1 mL, pH 5.13
[22] = t4 h, kit stored 6 months at 25° C., IRE 18.88 mCi, 1 mL, pH 5.09
[23] = t4 h, kit stored 6 months at 40° C., IRE 19.34 mCi, 1 mL, pH 5.15

^68Ga-PSMA-11 [[^68Ga] Gallium PSMA-11]
[^68Ga] Gallium main degradant, HPLC (t0 h, kit stored 6 months at 40° C., IRE 19.34 mCi, 1 mL, pH 5.15): 0.42%
[^68Ga] Gallium PSMA-11 (sum of stereosiomers), HPLC [1]: 90.89%
[^68Ga] Gallium free, HPLC [1]: 0.14%
[^68Ga] Gallium main degradant, HPLC [1]: 7.32%
[^68Ga] Gallium PSMA-11 (sum of stereosiomers), HPLC [2]: 97.87%
[^68Ga] Gallium free, HPLC [2]: 0.00%
[^68Ga] Gallium main degradant, HPLC [2]: 1.80%
[^68Ga] Gallium PSMA-11 (sum of stereosiomers), HPLC [3]: 97.80%
[^68Ga] Gallium free, HPLC [3]: 0.00%
[^68Ga] Gallium main degradant, HPLC [3]: 1.74%
[^68Ga] Gallium PSMA-11 (sum of stereosiomers), HPLC [4]: 99.72%
[^68Ga] Gallium free, HPLC [4]: 0.00%
[^68Ga] Gallium main degradant, HPLC [4]: 0.00%
[^68Ga] Gallium PSMA-11 (sum of stereosiomers), HPLC [5]: 99.20%
[^68Ga] Gallium free, HPLC [5]: 0.00%
[^68Ga] Gallium main degradant, HPLC [5]: 0.68%
[^68Ga] Gallium PSMA-11 (sum of stereosiomers), HPLC [6]: 98.46%
[^68Ga] Gallium free, HPLC [6]: 0.00%
[^68Ga] Gallium main degradant, HPLC [6]: 1.54%
[^68Ga] Gallium PSMA-11 (sum of stereosiomers), HPLC [7]: 98.24%
[^68Ga] Gallium free, HPLC [7]: 0.00%
[^68Ga] Gallium main degradant, HPLC [7]: 0.00%
[^68Ga] Gallium PSMA-11 (sum of stereosiomers), HPLC [8]: 99.57%
[^68Ga] Gallium free, HPLC [8]: 0.00%
[^68Ga] Gallium main degradant, HPLC [8]: 0.00%
[^68Ga] Gallium PSMA-11 (sum of stereosiomers), HPLC [9]: 100.00%
[^68Ga] Gallium free, HPLC [9]: 0.00%
[^68Ga] Gallium main degradant, HPLC [9]: 0.00%
[^68Ga] Gallium PSMA-11 (sum of stereosiomers), HPLC [10]: 99.59%
[^68Ga] Gallium free, HPLC [10]: 0.00%
[^68Ga] Gallium main degradant, HPLC [10]: 0.41%
[^68Ga] Gallium PSMA-11 (sum of stereosiomers), HPLC [11]: 99.69%
[^68Ga] Gallium free, HPLC [11]: 0.00%
[^68Ga] Gallium main degradant, HPLC [11]: 0.06%
[^68Ga] Gallium PSMA-11 (sum of stereosiomers), HPLC [12]: 100.00%
[^68Ga] Gallium free, HPLC [12]: 0.00%
[^68Ga] Gallium main degradant, HPLC [12]: 0.00%
[^68Ga] Gallium PSMA-11 (sum of stereosiomers), HPLC [13]: 100.00%
[^68Ga] Gallium free, HPLC [13]: 0.00%
[^68Ga] Gallium main degradant, HPLC [13]: 0.00%
[^68Ga] Gallium PSMA-11 (sum of stereosiomers), HPLC [14]: 98.75%
[^68Ga] Gallium free, HPLC [14]: 0.00%
[^68Ga] Gallium main degradant, HPLC [14]: 0.54%
[^68Ga] Gallium PSMA-11 (sum of stereosiomers), HPLC [15]: 99.05%
[^68Ga] Gallium free, HPLC [15]: 0.03%
[^68Ga] Gallium main degradant, HPLC [15]: 0.42%
[^68Ga] Gallium PSMA-11 (sum of stereosiomers), HPLC [16]: 99.82%
[^68Ga] Gallium free, HPLC [16]: 0.00%
[^68Ga] Gallium main degradant, HPLC [16]: 0.00%
[^68Ga] Gallium PSMA-11 (sum of stereosiomers), HPLC [17]: 99.69%
[^68Ga] Gallium free, HPLC [17]: 0.00%
[^68Ga] Gallium main degradant, HPLC [17]: 0.06%
[^68Ga] Gallium PSMA-11 (sum of stereosiomers), HPLC [18]: 99.37%
[^68Ga] Gallium free, HPLC [18]: 0.00%
[^68Ga] Gallium main degradant, HPLC [18]: 0.49%
[^68Ga] Gallium PSMA-11 (sum of stereosiomers), HPLC [19]: 99.03%
[^68Ga] Gallium free, HPLC [19]: 0.00%
[^68Ga] Gallium main degradant, HPLC [19]: 0.38%
[^68Ga] Gallium PSMA-11 (sum of stereosiomers), HPLC [20]: 98.20%
[^68Ga] Gallium free, HPLC [20]: 0.00%
[^68Ga] Gallium main degradant, HPLC [20]: 0.37%
[^68Ga] Gallium PSMA-11 (sum of stereosiomers), HPLC [21]: 99.44%
[^68Ga] Gallium free, HPLC [21]: 0.00%
[^68Ga] Gallium main degradant, HPLC [21]: 0.44%
[^68Ga] Gallium PSMA-11 (sum of stereosiomers), HPLC [22]: 99.21%
[^68Ga] Gallium free, HPLC [22]: 0.00%
[^68Ga] Gallium main degradant, HPLC [22]: 0.33%
[^68Ga] Gallium PSMA-11 (sum of stereosiomers), HPLC [23]: 99.23%
[^68Ga] Gallium free, HPLC [23]: 0.00%
[^68Ga] Gallium main degradant, HPLC [23]: 0.46%
